The subject of series [1] is PbrRALF7. Nature of the series: Expression of PbrRALF7 after PbrRALF2-ODN treatment. Type of series: cell-based, pear. Here is the method:
(§1) The MIQE guidelines were followed for quantitative RT-PCR (qRT–PCR) experiments. The Plant Total RNA Isolation Kit (FOREGENE, Chengdu, China) was used to extract total RNA, and DNase I was used to eliminate genomic DNA contaminants. A RevertAid First Strand cDNA Synthesis Kit was used to reverse transcription purified total RNA (3 μg) (Thermo Scientific, USA). Then, using SYBR Green Master Mix on a LightCycler® 480 II (Roche, Switzerland), quantitative PCR (qPCR) was performed on 20-μl samples according to the manufacturer’s instructions. The thermal cycle was performed at 95 °C for 5 min, followed by 45 cycles of 15 s at 95 °C and 15 s at 60 °C. The pear TUBULIN gene was used as an internal control, and relative expression levels were evaluated using the 2CT2 − △△CT method, as previously described. The primers for RT-PCR and qRT–PCR of PbrRALFs, PbrCrRLK1L13, PbrMPK18, and PbrTUB in pear are presented in Supplementary Tables S5 and S6, respectively.
(§2) Twenty-mer phosphorothioate oligonucleotides against PbrRALF2, PbrCrRLK1L13, PbrMPK18, and their sense controls (s-ODN) were synthesized with three 5′- and 3′-phosphorothioate-modified bases, and a scrambled mismatch sequence was used as a control. […] More than 35 pollen tubes were measured in each treatment, and the experiments were repeated at least three times. […]

Series [2] has as its system PbrRALF11. Description: Expression of PbrRALF11 after PbrRALF2-ODN treatment. Type of series: cell-based, pear. Here is the method:
as §1, §2

For series [3], the target named is GST-PbrCrRLK1L13-ECD (pear (Pyrus bretschneideri)). Description: ITC; MicroCal ITC200, 25 °C; 200 μM PbrRALF2 in the syringe titrated into 20 μM PbrCrRLK1L13 extracellular domain; 50 mM phosphate pH 7.4, 150 mM NaCl; one set of sites model; apparent. For orientation: In ITC the heat of successive injections is recorded.
Series [4] has the same target.
For series [5] the target is unchanged. Description: SPR; Biacore T200, 25 °C; PbrCrRLK1L13 immobilised on a CM5 chip by amine coupling; running buffer 10 mM HEPES, 150 mM NaCl, 3 mM EDTA, pH 7.4; PbrRALF2 injected at 15, 30, 60 and 120 nM; steady-state 1:1 model; apparent. Background: Surface plasmon resonance follows binding to a sensor surface in real time, without labels.
Series [6] concerns FER. The following applies: Arabidopsis; cited from earlier work. From the text:
(§3) PbrCrRLK1L13 interacts with its PbrRALF2 ligand via exJM at the plasma membrane (Fig. 2B), similar to the region where LORELEI and LLG1 physically interact with FER[42], thus implying a potentially conserved role for the exJM region of CrRLK1Ls. […] Such phosphorylation by peptides has similarly been observed for multiple receptor-like kin ...

In series [7] the test system is BAK1. The following applies: Arabidopsis; cited from earlier work.
Source text: as §3

In the oligonucleotide strings, read from the 5' end, every base follows the letter of its sugar. An asterisk marks phosphorothioate; unmarked linkages are phosphodiester. Other units and linkages are bracketed, terminal groups are in braces. A string of capitals states the bases alone. d = 2'-deoxy (DNA)

With “PbrRALF2-ODN-2: antisense ODN GCGCACCGTAGCTGATGT (antisense dG*dC*dG*dCdAdCdCdGdTdAdGdCdTdGdA*dT*dG*dT)”, the “expression level of PbrRALF7” value in series [1] is “not affected”. Besides, in series [2], the “expression level of PbrRALF11” value was “not affected”.

“recombinant PbrRALF2 (His-PbrRALF fusion protein from pCold-TF) (ligand)”: the figures for the Kd in series [3] and in series [5] were 512 nM and 73 nM, respectively. The substance also gave an IC50 of inhibition of pear pollen tube growth by E. coli-expressed PbrRALF2 (0.025-1 μM) in series [4] of 92 nM.

Regarding “PbrRALF2-ODN-1: antisense ODN GTGATGGCGCTGCAGCCGCGG (antisense dG*dT*dG*dAdTdGdGdCdGdCdTdGdCdAdGdCdCdG*dC*dG*dG)”, in series [1], the “expression level of PbrRALF7” value is listed as “not affected”. In series [2], the “expression level of PbrRALF11” value is reported as “not affected”.

“RALF1: Arabidopsis RALF1, ligand of FER (ATTKYISYQSLKRNSVPCSRRGASYYNCQNGAQANPYSRGCSKIARCRS; UniProt Q9SRY3 72-120, looked up)”: in series [6], the FER phosphorylation entry is “triggers FER”. In addition, the BAK1 phosphorylation entry in series [7] is “BAK1[41] phosphorylation”.

The values above are taken from article PMC8490453, “PbrRALF2-elicited reactive oxygen species signaling is mediated by the PbrCrRLK1L13-PbrMPK18 module in pear pollen tubes” (Horticulture Research, 2021).
